Patent US20080300263A1, “Pyrazolo [1,5-a] pyrimidine compounds and pharmaceutical compositions containing them” (EiRx Therapeutics plc, priority 2005, published 2008)
Like-named read-outs stand apart in the source and are kept apart here.

How the values were obtained:
[1] = test system: C9M-TF1 cells; assay: Primary high-throughput screen, Alamar Blue, suspension cells; format: cell-based; conditions: Homo sapiens, 72 h, compound at 10 μM, read-out: percentage kill, C9M
Procedure: (§1) Daughter Plates containing 10 μl of a […] solution of test compound selected from among the candidate compounds stored at […] are thawed at room temperature. A 10 μL volume of 0.1% DMSO in PBS is added to all wells of Column 12 and the wells in Row A-F of Column 1. A 10 μl volume of a pre-determined concentration of the P13-Kinase inhibitor LY294002 is added to wells in Row G and H of Column 1. A 90 μl volume of the appropriate cell culture medium is then added to each well and mixed by repeated aspiration/dispensing. The compounds are at a final test concentration of 10 μM.
(§2) Once the Daughter Plates have been prepared the media is removed from all wells of the cell culture plate using an 8-Channel Vacuum Aspirator. The contents of the Daughter Plates are then transferred to the appropriate wells of their relevant Test Plates and the Test Plates are incubated for 72 h at 37° C. and 5% CO2. At the end of this period Test Plates are assayed by Alamar Blue. A 10 μl volume of Alamar Blue is added to all wells of the Test Plate. The Test Plates are incubated for […] at 37° C. and 5% CO2 and finally read using the BioTek SYNERGY plate reader (Excitation 530125 nm-Emission 590135 nm). Percentage inhibition is determined using Microsoft Excel spreadsheet calculations.
(§3) Suspension cells are split 24 hours prior to drug treatment in order to bring the cultures into the log phase of growth. On the day of the assay the cells are plated directly into the Daughter Plates at the appropriate pre-determined seeding density (Table 1) in 90 μl volumes, the concentration of the test compounds thus being reduced to 10 μM. Cells are plated in all wells apart from those in Column 12 which contain 901 normal culture medium alone. The plates are incubated for 72 h at 37° C. and 5% CO2 after which time they are assayed by Alamar Blue as per the preceding example.
(§4) The figures appearing in the columns are the percentage kill achieved by that compound at 10 μM.

[2] = test system: FRAT2 overexpresing TF1 (FRAT2-C9M-TF1 cells); assay: as above; format: cell-based; conditions: Homo sapiens, compound at 10 μM, 72 h
Procedure: as §1, §2, §3, §4

[3] = test system: non-transformed breast cell line MCF10A; assay: EC50 titration, Alamar Blue, adherent cells; format: cell-based; conditions: Homo sapiens, MCF-10A, 72 h
Procedure: (§5) On the day of the assay compounds are used to prepare dilution series on Titration Plates which are plated at ten times their final screening concentration in 10 μl aliquots.
(§6) For adherent cell lines plated 24 hours previously, a 90 μl volume of the appropriate cell culture medium is then added to each well of the Titration Plates and mixed by repeated aspiration/dispensing, thus taking the compounds to their final test concentration. Once the Titration Plates have been prepared the media is removed from all wells of the cell culture plate and the contents of the Titration Plates are then transferred to the appropriate wells of their relevant Test Plates and incubated for 72 h at 37° C. and 5% CO2 after which time they are assayed by Alamar Blue. Using a combination of Microsoft Excel and Graph Pad Prism, EC50s are determined.
(§7) The EC50 values are calculated using the values obtained from the Alamar Blue readout which are converted into a “Percentage of the Untreated Control” and using Graph Pad Prism these values are plotted against the logarithm of the test concentration. Using a non-linear regression analysis a sigmoidal dose-response curve is generated from which the EC50 is determined.

[4] = test system: colon cancer cell line HT29; assay: EC50 titration, Alamar Blue, adherent cells; format: cell-based; conditions: Homo sapiens, HT-29, 72 h
Procedure: as §5, §6, §7

[5] = test system: breast cancer cell line MCF7; assay: EC50 titration, Alamar Blue, adherent cells; format: cell-based; conditions: Homo sapiens, 72 h
Procedure: as §5, §6, §7

[6] = test system: C9M-TF1 cells; assay: EC50 titration, Alamar Blue, suspension cells; format: cell-based; conditions: Homo sapiens, 72 h
Procedure: as §5
(§8) Suspension cells are split 24 hours prior to drug treatment in order to bring the cultures into the log phase of growth. On the day of the assay the cells are plated directly into the Titration Plates at the appropriate pre-determined seeding density (Table 1) in 90 μl volumes thus reducing the concentration of the compounds to their final test concentration. The plates are incubated for 72 hours at 37° C. and 5% CO2 after which time they are assayed by Alamar Blue.
as §7

[7] = test system: U1810 Non Small Cell Lung Carcinoma; assay: Primary high-throughput screen, Alamar Blue, adherent cells; format: cell-based; conditions: U-1810; compound at 10 μM, 72 h; read-out: percentage kill, U1810
Procedure: (§9) Adherent cells are plated at a pre-determined seeding density (Table 1) in flat-bottom 96 well plates 24 hours prior to drug treatment. The cell lines are plated in 100 μl volumes in each well. Cells are plated in all wells apart from those in Column 12 which contain 100 μL normal culture medium alone. These plates will be known as the Test Plates. The Test Plates are labelled with a Daughter Plate ID.
as §1, §2, §4

[8] = test system: CACO2 Colon adenocarcinoma; assay: as above; format: cell-based; conditions: Homo sapiens, Caco-2; compound at 10 μM, 72 h; read-out: percentage kill, CAC02
Procedure: as §9, §1, §2, §4

[9] = test system: A549 Non Small Cell Lung Carcinoma; assay: as above; format: cell-based; conditions: Homo sapiens, compound at 10 μM, 72 h, read-out: percentage kill, A549
Procedure: as §9, §1, §2, §4

[10] = test system: PC3 Prostate carcinoma (bone metastasis); assay: as above; format: cell-based; conditions: compound at 10 μM, 72 h; read-out: percentage kill, PC3
Procedure: as §9, §1, §2, §4

[11] = test system: HT29 Colorectal adenocarcinoma; assay: as above; format: cell-based; conditions: Homo sapiens, HT-29; compound at 10 μM, 72 h; read-out: percentage kill, HT29
Procedure: as §9, §1, §2, §4

[12] = test system: MCF7 Mammary gland adenocarcinoma; assay: as above; format: cell-based; conditions: Homo sapiens, compound at 10 μM, 72 h, read-out: percentage kill, MCF7
Procedure: as §9, §1, §2, §4

[13] = test system: NCI ADR RES Breast adenocarcinoma (pleural effusion); assay: as above; format: cell-based; conditions: Homo sapiens, compound at 10 μM, 72 h, read-out: percentage kill, NCI ADR RES
Procedure: as §9, §1, §2, §4

[14] = test system: LS123 Colon adenocarcinoma (Dukes' type B); assay: as above; format: cell-based; conditions: Homo sapiens, LS-123; compound at 10 μM, 72 h; read-out: percentage kill, LS123
Procedure: as §9, §1, §2, §4

[15] = test system: SW480 Colon adenocarcinoma (Dukes' type B); assay: as above; format: cell-based; conditions: Homo sapiens, compound at 10 μM, 72 h, read-out: percentage kill, SW480
Procedure: as §9, §1, §2, §4

[16] = test system: FRAT2-C9M-TF1 cells; assay: EC50 titration, Alamar Blue, suspension cells; format: cell-based, Human; conditions: Homo sapiens, 72 h, Alamar Blue
Procedure: as §5, §8, §7

[17] = minus GMCSF, read-out: percentage kill, FRAT2−
[18] = plus GMCSF, read-out: percentage kill, FRAT2+

Row | SMILES | EC50 [4] | EC50 [5] | inhibition at 10 µM ([1]; first C9M column) | inhibition at 10 µM ([1]; second C9M column) | inhibition at 10 µM [2, 17] | inhibition at 10 µM [2, 18] | EC50 [3] | EC50 [6] | inhibition at 10 µM [7] | inhibition at 10 µM [8] | inhibition at 10 µM [9] | inhibition at 10 µM [10] | inhibition at 10 µM [11] | inhibition at 10 µM [12] | inhibition at 10 µM [13] | inhibition at 10 µM [14] | inhibition at 10 µM [15] | EC50 ([16]; absence of growth factor) | EC50 ([16]; presence of growth factor)
1 | COc1ccc(-c2cnn3c(NCc4ccccn4)ccnc23)c(OC)c1 [Compound 4] | 1.58 µM | 1.78 µM | 1% | 1% | 71% | 36% | 14.5 µM | 21.4 µM | 16% | 35% | 12% | -4% | 71% | 64% | 67% | 92% | 53% | 2.75 µM | 5.62 µM
2 | Fc1ccc(-c2cnn3c(NCc4ccccn4)ccnc23)cc1Cl [Compound 11] |  |  | 1% | -6% | 71% | 35% |  |  | 13% | 61% | 5% | -85% | 25% | 22% | 18% | 22% | -6% |  | 
3 | ClCc1ccccc1-c1cnn2c(NCc3cccs3)ccnc12 [Compound 12] |  |  | 0% | 0% | 52% | 19% |  |  | 18% | 17% | 4% | -45% | -5% | 36% | -12% | 31% | -22% |  | 
4 | c1ccc(CNc2ccnc3c(-c4ccc(N5CCOCC5)cc4)cnn23)nc1 [Compound 13] |  |  | -1% | -1% | 61% | 38% |  |  | 13% | 27% | 18% | -37% | -13% | 56% | 28% | 55% | -4% |  | 
5 | Clc1cccc(Nc2ccn3ncc(-c4ccncc4)c3n2)c1 [Compound 14] |  |  | 45% | 27% | 50% | 38% |  |  | 2% | 46% | 26% | -4% | 51% | 26% | 2% | 13% | 10% |  | 

Now from value to compound, other results behind:

Row | EC50 [4] | EC50 [5] | SMILES | inhibition at 10 µM ([1]; first C9M column) | inhibition at 10 µM ([1]; second C9M column) | inhibition at 10 µM [2, 17] | inhibition at 10 µM [2, 18] | EC50 [3] | EC50 [6] | inhibition at 10 µM [7] | inhibition at 10 µM [8] | inhibition at 10 µM [9] | inhibition at 10 µM [10] | inhibition at 10 µM [11] | inhibition at 10 µM [12] | inhibition at 10 µM [13] | inhibition at 10 µM [14] | inhibition at 10 µM [15] | EC50 ([16]; absence of growth factor) | EC50 ([16]; presence of growth factor)
6 | 3.98 µM | 3.8 µM | COc1cccc(-c2cnn3c(NCc4ccccn4)ccnc23)c1 [Compound 1] | -1% | 2% | 54% | 28% | 18.6 µM | 26 µM | 15% | 61% | 34% | -4% | 58% | 68% | 58% | 91% | 33% | 11.8 µM | 12.9 µM
7 | 1.58 µM | 1.51 µM | c1ccc(-c2cnn3c(NCc4ccccn4)ccnc23)cc1 [Compound 5] | 1% | -11% | 61% | 42% | 12.9 µM | 16.6 µM | 24% | 78% | 10% | -92% | 75% | 87% | 63% | 87% | 62% | 3.63 µM | 5.75 µM
8 | 1.41 µM | 1.32 µM | Fc1ccccc1-c1cnn2c(NCc3ccccn3)ccnc12 [Compound 6] | -1% | -11% | 59% | 33% | 23.4 µM | 10 µM | 11% | 37% | 6% | -94% | 20% | 64% | 51% | 72% | 3% | 5.75 µM | 5.13 µM
9 | 4.07 µM | 2.34 µM | CN(C)c1cccc(-c2cnn3c(NCc4ccccn4)ccnc23)c1 [Compound 7] | 9% | 23% | 53% | 27% | 11.5 µM | 20.4 µM | 18% | 32% | 5% | -16% | 40% | 68% | 63% | 82% | 44% | 6.61 µM | 5.01 µM
10 | 1.51 µM | 1.78 µM | c1ccc(CNc2ccnc3c(-c4cccc5cccnc45)cnn23)nc1 [Compound 8] | 7% | -4% | 68% | 39% | 6.17 µM | 17.8 µM | 68% | 71% | -3% | 56% | 78% | 83% | 85% | 92% | 71% | 5.62 µM | 5.75 µM
